Like-named read-outs stand apart in the source and are kept apart here.
Columns and labels:
[1] = Average inhibition of all activities tested (overall efficiency); settings: average over all aspects analyzed
Source text: Thus, taking into consideration all the aspects analyzed, compound 5 of the present invention is 61.1% efficient, while compound 6 of this invention is 54.1% efficient in relation to the mechanisms involved in the toxicity of SMases D in the development of loxoscelism.

ERK1/2 = test: Activation of MAPK ERK1/2 signaling pathway in keratinocytes induced by recombinant SMases D, ELISA; format: cell-based, human; settings: compound 40 μM
TGF-β1 = format: cell-based, human
MMP-2 = format: cell-based, human
[2] = tested on: venom of Loxosceles laeta; format: biochemical; settings: for inhibition of the hydrolytic activity of the venom of L. laeta on the SM substrate: 40 µM
[3] = biological target: recombinant toxin sphingomyelinase D (SMase D) (Loxosceles laeta, UniProt Q8I914); test: biochemical; settings: for inhibition at 40 µM: read-out: inhibition of the hydrolytic activity of recombinant toxin on the SM substrate
TNF-α = format: cell-based, human
human keratinocytes [4] = format: cell-based; settings: compound 40 μM; flow cytometry
MMP-9 = format: cell-based, human
human red blood cells [5] = format: cell-based
human keratinocytes [6] = test: cells; format: cell-based; settings: Keratinocyte, read-out: inhibition of superoxide production
human red blood cells [7] = format: cell-based; remark: listed apart in the source
[8] = biological target: PLD of C. pseudotuberculosis (Corynebacterium pseudotuberculosis, UniProt P20626); format: biochemical
[9] = tested on: dermonecrotic lesions developed in rabbits; format: in vivo; settings: for histopathological analysis of the skin of rabbits inoculated with the venom: rabbit, in vivo; for reduction of dermonecrotic injury, 24 hours after venom inoculation / inhibition of dermonecrotic injury, 48 hours / inhibition of dermonecrotic injury, 72 hours: rabbits; for reduction of dermonecrotic injury, 24 hours after venom inoculation: compound at three times IC50 (136.2 μM compound 5, 190.2 μM compound 6); for inhibition of dermonecrotic injury, 48 hours / inhibition of dermonecrotic injury, 72 hours: compound at three times IC50
human keratinocytes [10] = test: cells; settings: Keratinocyte
[11] = biological target: SMases of Stahylococcus aureus (Staphylococcus aureus, UniProt P09978); test: Hydrolytic activity of SMase of Staphylococcus aureus on sphingomyelin; format: biochemical; settings: compound 40 μM
TNF receptor = format: cell-based, human
[12] = read-out: viability of human keratinocytes treated with recombinant toxin
[13] = read-out: viability of human keratinocytes treated with venom of L. laeta

recombinant toxin sphingomyelinase D (SMase D), sequence (Q8I914 27-311 limits assumed): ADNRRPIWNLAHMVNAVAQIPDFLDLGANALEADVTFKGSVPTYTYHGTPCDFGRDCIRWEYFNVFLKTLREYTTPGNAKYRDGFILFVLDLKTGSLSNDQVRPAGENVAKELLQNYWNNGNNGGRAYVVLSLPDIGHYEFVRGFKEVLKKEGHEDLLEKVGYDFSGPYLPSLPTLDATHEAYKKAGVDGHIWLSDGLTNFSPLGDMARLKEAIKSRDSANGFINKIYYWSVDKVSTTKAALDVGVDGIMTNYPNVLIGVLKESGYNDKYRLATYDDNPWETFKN
SMases of Stahylococcus aureus, sequence (P09978 35-330 limits assumed): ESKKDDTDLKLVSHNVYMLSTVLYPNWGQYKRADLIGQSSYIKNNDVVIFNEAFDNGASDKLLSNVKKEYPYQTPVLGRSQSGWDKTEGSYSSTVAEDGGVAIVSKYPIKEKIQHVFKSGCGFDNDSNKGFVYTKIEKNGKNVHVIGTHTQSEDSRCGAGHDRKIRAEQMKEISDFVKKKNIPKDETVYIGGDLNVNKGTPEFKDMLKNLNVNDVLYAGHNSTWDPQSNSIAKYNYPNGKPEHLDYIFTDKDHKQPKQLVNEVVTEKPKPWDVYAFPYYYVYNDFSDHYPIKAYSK
PLD of C. pseudotuberculosis, sequence (P20626 25-307 limits assumed): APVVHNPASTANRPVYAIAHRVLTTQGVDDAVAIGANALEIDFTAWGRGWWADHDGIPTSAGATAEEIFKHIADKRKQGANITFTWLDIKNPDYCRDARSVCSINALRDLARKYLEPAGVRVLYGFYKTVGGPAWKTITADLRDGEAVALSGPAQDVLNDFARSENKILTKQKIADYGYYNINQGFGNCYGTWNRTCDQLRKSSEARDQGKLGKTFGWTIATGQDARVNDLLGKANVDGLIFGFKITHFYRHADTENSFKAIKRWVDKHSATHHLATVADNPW

| Structure (SMILES) | efficiency in relation to the mechanisms involved in the toxicity of SMases D (average inhibition of all activities tested) [1] | reduction of phosphorylated ERK1/2 (ERK1/2) | reduction of TGF-β1 production (TGF-β1) | reduction of MMP-2 secretion (MMP-2) | reduction of the hydrolytic activity of the venom on substrate LPC [2] | inhibition of the hydrolytic activity of the venom of L. laeta on the SM substrate [2] | IC50 [3] | inhibition mechanism [3] | reduction of the hydrolytic activity of recombinant toxin on substrate LPC [3] | inhibition at 40 µM [3] | reduction of TNF-α production (TNF-α) | reduction of binding of SMases present in venom to the surface of human keratinocytes (human keratinocytes [4]) | reduction of binding of recombinant toxin to the surface of human keratinocytes (human keratinocytes [4]) | inhibition of MMP-9 secretion (MMP-9) | reduction of binding of the toxin to the red blood cell surface (human red blood cells [5]) | inhibition at 40 µM (human keratinocytes [6]) | reduction of removal of glycophorin C from the surface of human red blood cells (human red blood cells [7]) | reduction of PLD activity of C. pseudotuberculosis on sphingomyelin [8] | histopathological analysis of the skin of rabbits inoculated with the venom [9] | reduction of dermonecrotic injury, 24 hours after venom inoculation [9] | further results |
| --- | --- | --- | --- | --- | --- | --- | --- | --- | --- | --- | --- | --- | --- | --- | --- | --- | --- | --- | --- | --- | --- |
| Cc1cc(OS(=O)(=O)c2ccc(Cl)cc2)cc2c1C(=O)C(=Cc1cccnc1)O2 [Compound 6, 4-methyl-3-oxo-2-(3-pyridylmethylene)benzo[3,4-b]furan-6-yl-4-chlorobenzenesulphonate] | 54.1% | 80.2% | 89.2% | 98.4% | 16% | 22.7% | 63.4 ± 1.1 µM | uncompetitive action inhibitors | 34% | 51% | 61.1% | 25.6% | 50.77% | completely inhibit | 84% | 92.7% | 88.2% | about 68% | reduction in the disorganization of the collagen fibers in the dermis, absence of hemorrhage and inflammatory infiltrate | 36% | inhibition of dermonecrotic injury, 48 hours [9]: 45%; inhibition of dermonecrotic injury, 72 hours [9]: 49%; viability at 10 µM (human keratinocytes [10]; [12]): 53.5%; viability at 10 µM (human keratinocytes [10]; [13]): 59.3%; reduction of hydrolytic activity of SMase of Staphylococcus aureus [11]: efficiently reduced |
| Cc1[nH]c2ccccc2c1/C=N/NS(=O)(=O)c1ccc(Br)cc1 [Compound 5, 4-bromo-N-[(E)-(2-methyl-1H-indol-3-yl)methyleneamino]benzenosulfonamide] | 61.1% | 65.8% | 88.3% | 81% | 44.4% | 53% | 45.4 ± 1.2 µM | uncompetitive action inhibitors | 38.6% | 45.7% | 73.9% | 63.8% | 54.9% | completely inhibit | 96.8% | 70.7% | 92.6% | about 70% | reduction in the disorganization of the collagen fibers in the dermis, absence of hemorrhage and inflammatory infiltrate | 61.8% | reversal of toxin-induced removal of the TNF receptor from the cell surface (TNF receptor): 27.7%; inhibition of dermonecrotic injury, 48 hours [9]: 60%; inhibition of dermonecrotic injury, 72 hours [9]: 56%; viability at 10 µM (human keratinocytes [10]; [12]): 55.8%; viability at 10 µM (human keratinocytes [10]; [13]): 45.9%; reduction of hydrolytic activity of SMase of Staphylococcus aureus [11]: efficiently reduced |
